# Data reported in ChEMBL document CHEMBL5500368, “Discovery of novel diaryl substituted isoquinolin-1(2H)-one derivatives as hypoxia-inducible factor-1 signaling inhibitors for the treatment of rheumatoid arthritis” (Eur J Med Chem, 2024).
# How the values were obtained:
# [1] = Inhibition of HIF-1 (unknown origin) expressed in MH7A cells cotransfected with HRE and renilla luciferase assessed as reduction in luminescence signal preincubated for 1 hr under normoxic condition followed by 24 hrs incubation under hypoxic condition by dual luciferase reporter assay; conditions: Homo sapiens
# [2] = Cytotoxicity against human MH7A cells
Structure (SMILES),IC50 [1] [µM],CC50 [2] [µM]
COc1ccccc1-c1ccc(C(=O)NCCc2ccccc2F)nc1,4.57,> 50
O=c1c2ccc(-c3cccc(O)c3)cc2ccn1CCc1ccccc1,7.39,> 50
O=c1c2ccc(-c3ccc(F)cc3)cc2ccn1CCc1ccccc1,6.21,> 50
COc1ccccc1-c1ccc2c(=O)n(Cc3ccccc3F)ccc2c1,6.73,> 50
COc1ccc(-c2ccc3c(=O)n(CCc4ccccc4)ccc3c2)cc1,2.18,> 50
COc1ccc(-c2ccc3c(=O)n(Cc4ccccc4F)ccc3c2)cc1,3.54,> 50
O=c1c2ccc(-c3ccoc3)cc2ccn1Cc1ccccc1F,1.46,> 50
O=c1c2ccc(-c3ccccc3O)cc2ccn1CCc1ccccc1,0.91,> 50
O=c1c2ccc(-c3ccoc3)cc2ccn1Cc1ccccc1,5.92,> 50
O=c1c2ccc(-c3ccc(O)cc3)cc2ccn1CCc1ccccc1,0.82,> 50
COc1ccccc1-c1ccc2c(=O)n(CCc3ccccc3)ccc2c1,3.31,> 50
